Source: ChEMBL document CHEMBL1201862, “PubChem BioAssay data set” (2004)
The source made the active and inactive calls.

How the values were obtained:
[1] = molecular target: Nuclear receptor subfamily 5 group A member 2 (Homo sapiens, UniProt O00482); format: functional, cell-based;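 note: HEK293T cells transfected with LRH-1 and a StAR promoter luciferase reporter; potency for inhibitors that lower LRH-1 driven reporter light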
[2] = nonselective StAR promoter luciferase inhibitors – cell-based, luminescence, luciferase reporter, counter-screen for LRH-1 inverse agonist project, dose response (AID 651969); format: functional
Steroidogenic factor 1 = Steroidogenic factor 1 (Homo sapiens, UniProt Q13285); experiment: Counterscreen for inverse agonists of the liver receptor homolog-1 (LRH-1; NR5A2): Luminescence-based cell-based high throughput dose response assay to identify inverse agonists of the Steroidogenic Factor 1 Nuclear Receptor (SF1; NR5A1).; format: functional
Chain of Steroidogenic factor 1 (Q13285 whole entry): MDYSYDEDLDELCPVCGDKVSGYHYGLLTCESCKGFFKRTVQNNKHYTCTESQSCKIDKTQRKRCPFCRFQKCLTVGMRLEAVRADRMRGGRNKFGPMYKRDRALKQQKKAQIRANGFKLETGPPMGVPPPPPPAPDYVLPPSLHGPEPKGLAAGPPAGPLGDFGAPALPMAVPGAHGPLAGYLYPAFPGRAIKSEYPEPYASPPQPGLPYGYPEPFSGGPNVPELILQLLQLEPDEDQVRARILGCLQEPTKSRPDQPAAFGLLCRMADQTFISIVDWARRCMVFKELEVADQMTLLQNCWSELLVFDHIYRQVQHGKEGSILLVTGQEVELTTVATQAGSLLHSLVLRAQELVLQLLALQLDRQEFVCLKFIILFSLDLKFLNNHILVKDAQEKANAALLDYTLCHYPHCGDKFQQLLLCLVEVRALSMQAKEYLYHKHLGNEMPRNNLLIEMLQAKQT

[3] = viability loss in HeLa cells – cytotoxicity control for MgcRacGAP inhibitor project, dose response (AID 624300); format: functional
[4] = molecular target: Glucose-6-phosphate 1-dehydrogenase (Homo sapiens, UniProt P11413); experiment: inhibition of Homo sapiens G6PD, dose series – biochemical, fluorescence, selectivity assay for P. falciparum G6PD inhibitor project, dose response (AID 504792); format: functional
Chain of Glucose-6-phosphate 1-dehydrogenase (P11413 whole entry): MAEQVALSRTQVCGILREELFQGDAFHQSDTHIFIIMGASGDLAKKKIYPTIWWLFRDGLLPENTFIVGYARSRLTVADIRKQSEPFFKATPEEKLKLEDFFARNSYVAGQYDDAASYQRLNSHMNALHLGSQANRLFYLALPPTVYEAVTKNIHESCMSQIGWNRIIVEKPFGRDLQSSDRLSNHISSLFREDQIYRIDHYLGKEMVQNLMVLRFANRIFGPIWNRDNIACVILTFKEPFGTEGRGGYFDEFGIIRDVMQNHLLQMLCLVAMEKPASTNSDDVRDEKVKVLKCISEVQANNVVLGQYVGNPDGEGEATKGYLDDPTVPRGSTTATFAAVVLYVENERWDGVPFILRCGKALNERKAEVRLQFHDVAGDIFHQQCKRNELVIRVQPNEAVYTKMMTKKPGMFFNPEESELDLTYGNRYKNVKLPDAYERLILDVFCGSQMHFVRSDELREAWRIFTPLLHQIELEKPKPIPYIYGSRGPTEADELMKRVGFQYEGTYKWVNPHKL

[5] = molecular target: T1, Rac GTPase-activating protein 1 (Homo sapiens, UniProt Q9H0H5); experiment: blockers of MgcRacGAP-driven Rac1 GTP hydrolysis – biochemical, ADP Hunter fluorescence, primary and confirmatory, confirmation (AID 624330); format: functional
T1 sequence (Q9H0H5 whole entry): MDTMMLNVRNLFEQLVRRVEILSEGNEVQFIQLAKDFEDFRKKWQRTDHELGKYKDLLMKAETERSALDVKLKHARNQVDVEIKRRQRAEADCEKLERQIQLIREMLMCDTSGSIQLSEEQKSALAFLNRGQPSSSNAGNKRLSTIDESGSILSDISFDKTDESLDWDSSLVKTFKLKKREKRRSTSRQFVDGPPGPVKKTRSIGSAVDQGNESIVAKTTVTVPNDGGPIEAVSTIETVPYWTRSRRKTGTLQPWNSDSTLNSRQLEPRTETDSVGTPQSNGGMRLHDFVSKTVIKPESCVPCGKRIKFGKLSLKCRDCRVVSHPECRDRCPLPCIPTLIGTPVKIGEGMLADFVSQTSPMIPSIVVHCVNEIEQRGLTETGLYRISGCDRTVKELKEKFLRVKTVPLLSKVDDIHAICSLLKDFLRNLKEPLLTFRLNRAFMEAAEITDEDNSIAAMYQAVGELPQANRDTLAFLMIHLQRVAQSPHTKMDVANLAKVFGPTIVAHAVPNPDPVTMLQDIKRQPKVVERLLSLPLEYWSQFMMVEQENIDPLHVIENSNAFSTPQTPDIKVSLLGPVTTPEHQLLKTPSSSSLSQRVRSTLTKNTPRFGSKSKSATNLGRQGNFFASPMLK

[6] = molecular target: 5-hydroxytryptamine receptor 2A (Mus musculus, UniProt P35363); format: functional, cell-based;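 note: CHO-K1 cells with tagged receptor and beta-arrestin; agonist potency measured as compound-induced activation of the receptor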
Chain of 5-hydroxytryptamine receptor 2A (P35363 whole entry): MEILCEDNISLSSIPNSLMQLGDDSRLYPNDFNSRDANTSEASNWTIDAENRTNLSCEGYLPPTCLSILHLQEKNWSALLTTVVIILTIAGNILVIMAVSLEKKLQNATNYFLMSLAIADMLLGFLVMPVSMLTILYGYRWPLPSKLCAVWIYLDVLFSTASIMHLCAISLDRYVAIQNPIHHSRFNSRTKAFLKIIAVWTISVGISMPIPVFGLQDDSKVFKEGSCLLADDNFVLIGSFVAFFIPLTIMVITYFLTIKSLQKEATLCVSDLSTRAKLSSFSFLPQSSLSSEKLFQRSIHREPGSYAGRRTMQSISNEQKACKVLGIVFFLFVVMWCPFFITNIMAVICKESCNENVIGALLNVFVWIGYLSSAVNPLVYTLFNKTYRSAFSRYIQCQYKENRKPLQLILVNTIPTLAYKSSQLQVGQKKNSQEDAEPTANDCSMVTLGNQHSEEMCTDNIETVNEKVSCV

Mu-type opioid receptor = Mu-type opioid receptor (Homo sapiens, UniProt P35372); format: functional, cell-based;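 note: U2OS cells with beta-arrestin recruitment to OPRM1 by beta-gal complementation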
Chain of Mu-type opioid receptor (P35372 whole entry): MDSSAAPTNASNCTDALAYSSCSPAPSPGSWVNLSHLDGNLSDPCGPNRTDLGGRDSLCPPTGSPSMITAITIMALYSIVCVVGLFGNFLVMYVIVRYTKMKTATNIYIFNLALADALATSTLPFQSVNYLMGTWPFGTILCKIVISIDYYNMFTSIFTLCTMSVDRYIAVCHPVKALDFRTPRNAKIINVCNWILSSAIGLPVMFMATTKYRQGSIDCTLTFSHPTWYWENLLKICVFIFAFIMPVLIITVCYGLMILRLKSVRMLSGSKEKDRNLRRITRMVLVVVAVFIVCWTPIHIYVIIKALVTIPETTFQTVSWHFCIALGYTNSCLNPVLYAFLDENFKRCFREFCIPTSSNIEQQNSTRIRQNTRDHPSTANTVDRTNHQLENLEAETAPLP

[7] = molecular target: T2, Zinc finger protein mex-5 (Caenorhabditis elegans, UniProt Q9XUB2); experiment: potency of MEX-5 RNA-binding blockers – biochemical, C. elegans, fluorescence polarization, dose response (AID 1960)
T2 sequence (Q9XUB2 whole entry): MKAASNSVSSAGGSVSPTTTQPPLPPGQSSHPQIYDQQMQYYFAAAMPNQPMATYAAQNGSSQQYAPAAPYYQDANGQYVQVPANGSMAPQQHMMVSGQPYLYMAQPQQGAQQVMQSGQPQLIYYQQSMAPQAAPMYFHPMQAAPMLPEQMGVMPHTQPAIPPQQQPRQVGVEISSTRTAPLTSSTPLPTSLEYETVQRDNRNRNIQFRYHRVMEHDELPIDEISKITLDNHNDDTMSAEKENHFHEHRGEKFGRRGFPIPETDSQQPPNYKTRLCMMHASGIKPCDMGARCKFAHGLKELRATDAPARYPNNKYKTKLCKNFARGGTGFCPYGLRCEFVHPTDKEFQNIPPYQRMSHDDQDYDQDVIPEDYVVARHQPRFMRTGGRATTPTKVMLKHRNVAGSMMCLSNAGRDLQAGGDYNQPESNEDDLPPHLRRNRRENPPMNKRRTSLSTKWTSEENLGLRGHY

[8] = molecular target: T3, RNA-binding protein pos-1 (Caenorhabditis elegans, UniProt G5EF15); experiment: disruptors of C. elegans POS-1 RNA interaction – biochemical, fluorescence polarization, dose response (AID 1964);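 note: purified POS-1 fused to maltose binding protein made in E. coli; potency of compounds blocking POS-1 binding to fluorescent RNA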
T3 sequence (G5EF15 whole entry): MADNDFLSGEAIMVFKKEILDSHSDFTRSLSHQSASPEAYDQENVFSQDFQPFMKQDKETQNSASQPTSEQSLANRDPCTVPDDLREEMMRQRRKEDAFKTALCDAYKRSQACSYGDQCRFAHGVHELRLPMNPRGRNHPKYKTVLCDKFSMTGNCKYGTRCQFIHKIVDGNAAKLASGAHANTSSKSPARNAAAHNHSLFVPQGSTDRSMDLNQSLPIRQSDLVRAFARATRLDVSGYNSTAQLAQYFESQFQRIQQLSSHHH

[9] = molecular target: T4, DNA repair protein RAD52 homolog (Homo sapiens, UniProt P43351); format: functional, biochemical
T4 sequence (P43351 whole entry): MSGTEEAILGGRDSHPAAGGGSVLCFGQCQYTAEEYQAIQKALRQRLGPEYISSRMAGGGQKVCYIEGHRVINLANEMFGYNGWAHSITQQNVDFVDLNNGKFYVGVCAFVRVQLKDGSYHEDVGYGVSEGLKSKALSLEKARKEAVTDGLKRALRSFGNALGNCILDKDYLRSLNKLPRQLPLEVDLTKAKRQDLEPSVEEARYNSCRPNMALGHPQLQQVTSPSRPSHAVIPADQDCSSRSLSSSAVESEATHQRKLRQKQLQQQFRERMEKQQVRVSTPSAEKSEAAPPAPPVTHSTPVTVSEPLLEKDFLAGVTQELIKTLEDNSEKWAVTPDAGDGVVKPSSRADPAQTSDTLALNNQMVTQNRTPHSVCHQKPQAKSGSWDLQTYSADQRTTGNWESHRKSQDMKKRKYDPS

[10] = molecular target: T5, DNA repair and recombination protein RAD54-like (Homo sapiens, UniProt Q92698); experiment: RAD54 Holliday junction migration blockers – biochemical, fluorescence, cherry-picked samples, dose series, confirmation (AID 651657); format: functional
T5 sequence (Q92698 whole entry): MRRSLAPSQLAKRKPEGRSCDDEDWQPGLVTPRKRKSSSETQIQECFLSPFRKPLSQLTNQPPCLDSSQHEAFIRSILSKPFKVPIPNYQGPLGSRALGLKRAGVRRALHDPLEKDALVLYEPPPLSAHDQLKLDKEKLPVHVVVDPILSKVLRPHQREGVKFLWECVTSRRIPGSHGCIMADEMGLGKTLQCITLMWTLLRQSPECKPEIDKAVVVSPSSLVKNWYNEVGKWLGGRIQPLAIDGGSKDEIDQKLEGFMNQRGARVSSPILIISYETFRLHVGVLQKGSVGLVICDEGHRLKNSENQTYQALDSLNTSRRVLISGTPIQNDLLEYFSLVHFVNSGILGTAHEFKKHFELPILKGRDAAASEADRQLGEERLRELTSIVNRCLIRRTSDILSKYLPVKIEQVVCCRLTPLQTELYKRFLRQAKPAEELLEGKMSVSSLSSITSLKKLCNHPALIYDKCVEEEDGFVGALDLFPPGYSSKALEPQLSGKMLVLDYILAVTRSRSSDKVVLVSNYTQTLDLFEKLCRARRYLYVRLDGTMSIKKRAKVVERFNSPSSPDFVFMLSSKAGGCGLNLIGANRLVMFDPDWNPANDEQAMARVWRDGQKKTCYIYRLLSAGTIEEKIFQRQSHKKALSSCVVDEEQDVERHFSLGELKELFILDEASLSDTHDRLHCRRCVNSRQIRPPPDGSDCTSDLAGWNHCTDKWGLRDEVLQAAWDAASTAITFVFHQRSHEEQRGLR

[11] = acridine orange displacement from DNA – biochemical, fluorescence polarization, cherry-pick, artefact control for RAD54 inhibitor project, dose response (AID 651673); format: functional
H4 = experiment: Luminescence Cell-Based Dose Response HTS to Identify Activators of 5'UTR Stem-Loop Driven Prion Protein mRNA Translation in H4 Neuroglioblastoma Cells. [Related pubchem assays: 1829 (Project Summary), 1814 (Primary HTS)]; format: functional; settings: Homo sapiens
[12] = molecular target: SWI/SNF-related matrix-associated actin-dependent regulator of chromatin subfamily A member 2 (Homo sapiens, UniProt P51531); experiment: Luminescence-based cell-based high throughput dose response assay to identify activators of the function of SWI/SNF related, matrix associated, actin dependent regulator of chromatin, subfamily a, member 2 (SMARCA2, BRM).; format: functional
Chain of SWI/SNF-related matrix-associated actin-dependent regulator of chromatin subfamily A member 2 (P51531 whole entry): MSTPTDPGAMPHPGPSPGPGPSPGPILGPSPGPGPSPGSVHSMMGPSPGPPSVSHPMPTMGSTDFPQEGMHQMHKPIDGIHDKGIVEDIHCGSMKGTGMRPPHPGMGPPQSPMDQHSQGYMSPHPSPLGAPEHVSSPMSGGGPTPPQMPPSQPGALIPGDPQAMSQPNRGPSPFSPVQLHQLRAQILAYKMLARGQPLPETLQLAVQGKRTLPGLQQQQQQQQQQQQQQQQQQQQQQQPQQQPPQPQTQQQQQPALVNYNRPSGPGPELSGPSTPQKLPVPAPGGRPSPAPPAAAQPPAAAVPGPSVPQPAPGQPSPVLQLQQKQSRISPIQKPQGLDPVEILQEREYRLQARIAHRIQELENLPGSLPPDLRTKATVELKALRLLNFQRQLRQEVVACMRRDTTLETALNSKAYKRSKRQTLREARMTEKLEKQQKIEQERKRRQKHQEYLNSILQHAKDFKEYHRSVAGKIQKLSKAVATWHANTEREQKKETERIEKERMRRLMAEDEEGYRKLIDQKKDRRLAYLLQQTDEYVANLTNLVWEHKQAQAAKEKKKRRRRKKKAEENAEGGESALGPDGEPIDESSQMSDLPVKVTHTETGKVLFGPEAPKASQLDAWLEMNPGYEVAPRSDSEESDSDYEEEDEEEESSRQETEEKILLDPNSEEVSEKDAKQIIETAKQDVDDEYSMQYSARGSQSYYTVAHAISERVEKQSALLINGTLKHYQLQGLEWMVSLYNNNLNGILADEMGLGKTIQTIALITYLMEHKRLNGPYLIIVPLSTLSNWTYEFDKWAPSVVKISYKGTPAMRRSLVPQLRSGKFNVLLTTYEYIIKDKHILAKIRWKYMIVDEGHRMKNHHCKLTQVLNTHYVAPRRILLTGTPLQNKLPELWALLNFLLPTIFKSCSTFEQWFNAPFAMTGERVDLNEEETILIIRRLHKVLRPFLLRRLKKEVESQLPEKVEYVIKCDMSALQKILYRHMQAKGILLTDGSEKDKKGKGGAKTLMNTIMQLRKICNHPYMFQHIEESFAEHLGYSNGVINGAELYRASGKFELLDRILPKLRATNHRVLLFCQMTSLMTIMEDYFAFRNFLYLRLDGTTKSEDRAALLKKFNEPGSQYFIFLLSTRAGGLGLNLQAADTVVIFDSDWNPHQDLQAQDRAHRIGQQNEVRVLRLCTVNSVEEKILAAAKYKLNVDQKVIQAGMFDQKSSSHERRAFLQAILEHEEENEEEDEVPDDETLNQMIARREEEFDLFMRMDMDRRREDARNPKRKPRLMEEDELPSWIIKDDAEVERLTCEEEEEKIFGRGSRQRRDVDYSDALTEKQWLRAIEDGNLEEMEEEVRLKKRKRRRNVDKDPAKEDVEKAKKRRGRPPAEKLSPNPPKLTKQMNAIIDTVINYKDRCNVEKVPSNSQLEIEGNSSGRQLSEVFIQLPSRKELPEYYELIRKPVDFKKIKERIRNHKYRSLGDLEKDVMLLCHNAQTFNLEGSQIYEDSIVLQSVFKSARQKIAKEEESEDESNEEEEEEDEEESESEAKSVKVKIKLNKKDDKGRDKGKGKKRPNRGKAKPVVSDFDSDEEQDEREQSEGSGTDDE

[13] = Luminescence Cell-Based Dose Response HTS to Identify Activators of Luciferase Translation or Activity in H4 […] Cells. [Related pubchem assays: 1829 (Project Summary), 1814 (Primary HTS)]; format: functional
[14] = Counterscreen for activators of the function of SWI/SNF related, matrix associated, actin dependent regulator of chromatin, subfamily a, member 2 (SMARCA2, BRM): Luminescence-based cell-based high throughput dose response assay to identify non-selective compounds using the VP16 reporter assay.; format: functional
[15] = molecular target: T6, Tyrosine-protein phosphatase non-receptor type 11 (Homo sapiens, UniProt Q06124); experiment: PTPN11 enzyme inhibitors – biochemical, selectivity assay for STEP inhibitor project, dose response (AID 602367); format: functional; settings: read-out: IC50_Mean
T6 sequence (Q06124 whole entry): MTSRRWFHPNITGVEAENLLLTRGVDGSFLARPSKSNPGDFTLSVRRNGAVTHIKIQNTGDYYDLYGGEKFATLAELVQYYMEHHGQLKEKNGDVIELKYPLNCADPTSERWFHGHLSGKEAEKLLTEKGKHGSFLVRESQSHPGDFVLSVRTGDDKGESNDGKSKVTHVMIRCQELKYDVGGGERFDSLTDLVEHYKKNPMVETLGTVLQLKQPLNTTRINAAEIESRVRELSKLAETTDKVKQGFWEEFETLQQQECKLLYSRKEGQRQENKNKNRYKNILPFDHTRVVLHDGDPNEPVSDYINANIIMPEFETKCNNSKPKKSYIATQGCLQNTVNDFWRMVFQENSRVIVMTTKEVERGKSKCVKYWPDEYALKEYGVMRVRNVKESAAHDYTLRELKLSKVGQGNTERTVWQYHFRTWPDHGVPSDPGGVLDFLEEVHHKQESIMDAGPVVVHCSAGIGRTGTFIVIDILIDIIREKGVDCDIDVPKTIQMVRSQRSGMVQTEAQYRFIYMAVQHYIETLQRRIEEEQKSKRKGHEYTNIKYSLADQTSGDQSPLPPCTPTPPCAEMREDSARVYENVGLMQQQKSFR

[16] = molecular target: T7, Carboxy-terminal domain RNA polymerase II polypeptide A small phosphatase 1 (Homo sapiens, UniProt Q9GZU7); experiment: CTDSP1 inhibitors, concentration-response, biochemical, absorbance readout, ultra-high-throughput screen actives (AID 540297); format: functional
T7 sequence (Q9GZU7 whole entry): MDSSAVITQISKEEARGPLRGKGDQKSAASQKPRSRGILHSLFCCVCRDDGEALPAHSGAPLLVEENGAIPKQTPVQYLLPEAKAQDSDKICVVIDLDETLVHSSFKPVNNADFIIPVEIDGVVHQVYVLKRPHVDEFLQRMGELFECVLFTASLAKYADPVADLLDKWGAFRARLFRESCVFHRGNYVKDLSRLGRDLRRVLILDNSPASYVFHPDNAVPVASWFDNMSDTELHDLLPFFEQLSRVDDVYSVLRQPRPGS

[17] = molecular target: Dual specificity protein phosphatase 3 (Homo sapiens, UniProt P51452); experiment: VHR phosphatase inhibition, dose response, selectivity assay for STEP inhibitor project, biochemical (AID 602374); format: functional; settings: read-out: IC50_Mean
Chain of Dual specificity protein phosphatase 3 (P51452 whole entry): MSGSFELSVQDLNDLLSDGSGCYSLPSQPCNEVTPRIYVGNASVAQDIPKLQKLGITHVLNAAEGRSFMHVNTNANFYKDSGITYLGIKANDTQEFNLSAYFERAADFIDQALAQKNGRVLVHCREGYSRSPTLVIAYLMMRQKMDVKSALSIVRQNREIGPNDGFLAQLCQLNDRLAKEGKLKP

[18] = molecular target: T8, Tyrosine-protein phosphatase non-receptor type 5 (Homo sapiens, UniProt P54829); experiment: PTPN5 enzyme inhibition – biochemical, fluorescence intensity, uHTS hits, confirmation (AID 602372); format: functional; settings: read-out: IC50_Mean
T8 sequence (P54829 whole entry): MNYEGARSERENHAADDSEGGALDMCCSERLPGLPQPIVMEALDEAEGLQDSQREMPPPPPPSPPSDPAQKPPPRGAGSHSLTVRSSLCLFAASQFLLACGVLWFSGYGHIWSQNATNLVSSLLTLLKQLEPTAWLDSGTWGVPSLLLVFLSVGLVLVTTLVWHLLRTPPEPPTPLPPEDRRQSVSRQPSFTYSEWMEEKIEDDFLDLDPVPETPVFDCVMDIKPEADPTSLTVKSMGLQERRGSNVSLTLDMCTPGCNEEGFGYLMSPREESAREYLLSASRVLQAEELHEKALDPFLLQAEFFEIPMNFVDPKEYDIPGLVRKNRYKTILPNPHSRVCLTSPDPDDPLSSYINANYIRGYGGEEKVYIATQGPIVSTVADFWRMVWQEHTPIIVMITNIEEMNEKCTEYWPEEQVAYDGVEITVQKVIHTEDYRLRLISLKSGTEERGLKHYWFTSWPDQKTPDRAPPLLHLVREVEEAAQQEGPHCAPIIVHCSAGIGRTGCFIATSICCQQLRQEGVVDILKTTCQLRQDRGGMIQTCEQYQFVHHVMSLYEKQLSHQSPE

Chain of Nuclear receptor subfamily 5 group A member 2 (O00482 whole entry): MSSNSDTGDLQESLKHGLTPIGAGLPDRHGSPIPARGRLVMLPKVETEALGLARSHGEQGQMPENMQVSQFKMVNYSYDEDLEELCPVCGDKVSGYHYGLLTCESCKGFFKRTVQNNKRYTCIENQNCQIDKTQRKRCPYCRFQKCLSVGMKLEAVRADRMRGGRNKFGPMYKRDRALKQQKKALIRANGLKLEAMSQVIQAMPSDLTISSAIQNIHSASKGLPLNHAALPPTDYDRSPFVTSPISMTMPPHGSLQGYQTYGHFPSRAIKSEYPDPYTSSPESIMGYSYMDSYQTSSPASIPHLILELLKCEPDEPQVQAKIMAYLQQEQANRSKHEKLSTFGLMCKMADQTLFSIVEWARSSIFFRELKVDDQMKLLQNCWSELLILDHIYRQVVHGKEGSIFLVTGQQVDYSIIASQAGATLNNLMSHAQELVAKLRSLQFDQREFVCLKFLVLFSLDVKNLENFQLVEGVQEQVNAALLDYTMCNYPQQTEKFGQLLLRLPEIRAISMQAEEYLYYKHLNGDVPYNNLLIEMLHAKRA

COc1ccc(CCNC(=O)COC(=O)C23CC4CC(CC(C4)C2)C3)cc1
IC50 [1]: 28.6 µM (inactive)
IC50 [2]: 35.9 µM (inactive)
IC50 (Steroidogenic factor 1): 2.17 µM (active)

Cn1c(=O)c2c(nc(S)n2CCCc2ccccc2)n(C)c1=O
CC50 [3]: 100 µM (active)
IC50 [4]: 60.7 µM (inactive)
IC50 [5]: 16.1 µM (active)

Cc1cccc(CN2CCN(c3ccccn3)CC2)c1
EC50 [6]: 0.128 µM (active)
EC50 (Mu-type opioid receptor): 92.5 µM (inactive)

Cc1nn(Cc2ccccc2)c(C)c1C(=O)OCC(=O)Nc1ccccc1SCC#N
IC50 [1]: 1.33 µM (active)
IC50 [2]: 35.9 µM (inactive)
IC50 (Steroidogenic factor 1): 2.41 µM (active)

O=C1NC(=O)N(c2ccccc2)C(=O)/C1=C/c1coc2ccc(O)cc2c1=O
EC50 [7]: > 300 µM (not active)
EC50 [8]: > 300 µM (not active)
CC50 [3]: 100 µM (active)
IC50 [5]: 110 µM (active)

CCN(CC)CCCNc1nc2ccccc2c2nc(-c3ccncc3)nn12
AC50 [9]: 10.4 µM (active)
AC50 [10]: 6.19 µM (active)
AC50 [11]: 40.4 µM (active)
EC50 (H4): > 120 µM (not active)
EC50 [12]: 32.5 µM (inactive)
EC50 [13]: 16.5 µM (active)
EC50 [14]: > 91.2 µM (inactive)

CCOc1ccc(NC(=O)CSc2nncc(=O)n2N)cc1
IC50 [1]: 35.9 µM (inactive)
IC50 [2]: 35.9 µM (inactive)
IC50 (Steroidogenic factor 1): 12 µM (inactive)

O=C(N/N=C/c1ccc(Br)cc1)c1ccc(Br)o1
IC50 [15]: 9.11 µM (active)
IC50 [16]: 6.85 µM (active)
IC50 [17]: 8.79 µM (active)
IC50 [18]: 17.1 µM (active)
